One data set has as its system PBMC. In words: Inhibition of LPS-stimulated TNFalpha release from human PBMC after 3 hrs.
Data set [1] can be described thus: Thermodynamic solubility at pH 6.8. It is filed as physicochemical. As to conditions: buffer.
A short description of data set [2]: Inhibition of PKA.
Another data set addresses MAP kinase p38 (Homo sapiens, UniProt O15264+Q15759+Q16539+P53778). In words: Inhibition of human p38. It is filed as protein assay.
The target of data set [3] is MAP kinase-activated protein kinase 2 (Homo sapiens, UniProt P49137).
Data set [4] has as its target Mitogen-activated protein kinase 8 (Homo sapiens, UniProt P45983). Kind of data set: Inhibition of JNK1.
In data set [5] the target is Hepatocyte growth factor receptor (Homo sapiens, UniProt P08581). Kind of data set: Inhibition of c-Met.
Data set [6] addresses Mast/stem cell growth factor receptor Kit (Homo sapiens, UniProt P10721). In words: Inhibition of c-Kit.
In data set [7] the target is Insulin-like growth factor 1 receptor (Homo sapiens, UniProt P08069). In words: Inhibition of IGF1R.
In data set [8] the target is Tyrosine-protein kinase JAK2 (Homo sapiens, UniProt O60674). Kind of data set: Inhibition of JAK2.
For data set [9], the target named is Heat shock protein beta-1 (Homo sapiens) (UniProt P04792). In words: Inhibition of LPS-stimulated hsp27 phosphorylation in 1 hr pretreated human THP1 cells by Western blot. It is filed as cell-based. As to conditions: THP-1.
In data set [10] the target is MAP kinase-activated protein kinase 5 (Homo sapiens, UniProt Q8IW41). In words: Inhibition of MK5.
For another data set, the target named is Ephrin type-B receptor 4 (Homo sapiens, UniProt P54760). In words: Inhibition of EphB4.
Data set [11] deals with ALK tyrosine kinase receptor (Homo sapiens, UniProt Q9UM73). Kind of data set: Inhibition of Alk.
In data set [12] the target is Glycogen synthase kinase-3 beta (Homo sapiens, UniProt P49841). In words: Inhibition of GSK3b.
Data set [13] deals with Vascular endothelial growth factor receptor 2 (Homo sapiens, UniProt P35968). Kind of data set: Inhibition of KDR.
Another data set addresses Insulin receptor (Homo sapiens, UniProt P06213). Kind of data set: Inhibition of Ins1R.
Data set [14] deals with Tyrosine-protein kinase BTK (Homo sapiens, UniProt Q06187). Kind of data set: Inhibition of Btk.
The target in data set [15] is Mitogen-activated protein kinase 1 (Homo sapiens, UniProt P28482). Kind of data set: Inhibition of ERK2.
The target of data set [16] is Mitogen-activated protein kinase 9 (Homo sapiens, UniProt P45984). In words: Inhibition of JNK2.
Data set [17] addresses Receptor tyrosine-protein kinase erbB-2 (Homo sapiens, UniProt P04626). Kind of data set: Inhibition of HER2.
The target in data set [18] is Fibroblast growth factor receptor 4 (Homo sapiens, UniProt P22455). In words: Inhibition of FGFR4.
The target of data set [19] is RAC-alpha serine/threonine-protein kinase (Homo sapiens, UniProt P31749). Kind of data set: Inhibition of PKB.
Data set [20] concerns the target Tyrosine-protein kinase SYK (Homo sapiens, UniProt P43405).
For another data set, the target named is Ephrin type-A receptor 4 (Homo sapiens, UniProt P54764). Kind of data set: Inhibition of EphA4.
Another data set has as its target Aurora kinase A (Homo sapiens, UniProt O14965). Kind of data set: Inhibition of Aurora A.
For data set [21], the target named is Cyclin-dependent kinase 2 (Homo sapiens, UniProt P24941). Kind of data set: Inhibition of CDK2.
Data set [22] addresses Tyrosine-protein kinase JAK3 (Homo sapiens, UniProt P52333). Kind of data set: Inhibition of JAK3.
Data set [23] concerns the target Epidermal growth factor receptor (Homo sapiens, UniProt P00533).

pIC50: −log10 of the molar value. ≈ marks a conversion by molar mass, not a printed value.

Ephrin type-B receptor 4, sequence (P54760 whole entry): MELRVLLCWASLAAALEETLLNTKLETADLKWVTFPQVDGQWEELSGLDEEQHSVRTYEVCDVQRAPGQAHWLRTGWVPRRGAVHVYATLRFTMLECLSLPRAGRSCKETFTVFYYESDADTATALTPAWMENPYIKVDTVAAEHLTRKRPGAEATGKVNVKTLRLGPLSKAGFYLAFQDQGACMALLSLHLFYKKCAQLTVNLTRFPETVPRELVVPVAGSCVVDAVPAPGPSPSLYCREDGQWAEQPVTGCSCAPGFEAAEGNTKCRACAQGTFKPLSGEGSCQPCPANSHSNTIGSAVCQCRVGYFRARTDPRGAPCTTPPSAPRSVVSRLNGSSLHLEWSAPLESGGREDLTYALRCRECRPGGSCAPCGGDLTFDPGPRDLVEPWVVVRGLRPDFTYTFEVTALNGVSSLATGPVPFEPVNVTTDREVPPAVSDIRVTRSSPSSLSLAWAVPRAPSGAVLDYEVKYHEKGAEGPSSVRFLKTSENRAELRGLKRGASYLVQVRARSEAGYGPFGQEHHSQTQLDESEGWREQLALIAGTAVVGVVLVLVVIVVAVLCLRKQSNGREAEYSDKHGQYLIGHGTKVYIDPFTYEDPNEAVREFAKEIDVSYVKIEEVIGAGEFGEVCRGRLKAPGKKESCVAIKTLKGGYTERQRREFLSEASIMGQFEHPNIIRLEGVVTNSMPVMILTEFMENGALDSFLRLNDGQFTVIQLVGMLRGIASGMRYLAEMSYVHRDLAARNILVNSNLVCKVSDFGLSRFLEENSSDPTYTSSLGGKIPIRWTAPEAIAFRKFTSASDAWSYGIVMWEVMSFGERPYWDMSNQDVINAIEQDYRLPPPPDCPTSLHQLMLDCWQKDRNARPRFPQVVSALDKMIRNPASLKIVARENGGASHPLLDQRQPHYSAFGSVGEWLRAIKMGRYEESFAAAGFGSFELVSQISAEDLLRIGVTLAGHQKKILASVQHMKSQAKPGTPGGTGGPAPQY
Fibroblast growth factor receptor 4, sequence (P22455 whole entry): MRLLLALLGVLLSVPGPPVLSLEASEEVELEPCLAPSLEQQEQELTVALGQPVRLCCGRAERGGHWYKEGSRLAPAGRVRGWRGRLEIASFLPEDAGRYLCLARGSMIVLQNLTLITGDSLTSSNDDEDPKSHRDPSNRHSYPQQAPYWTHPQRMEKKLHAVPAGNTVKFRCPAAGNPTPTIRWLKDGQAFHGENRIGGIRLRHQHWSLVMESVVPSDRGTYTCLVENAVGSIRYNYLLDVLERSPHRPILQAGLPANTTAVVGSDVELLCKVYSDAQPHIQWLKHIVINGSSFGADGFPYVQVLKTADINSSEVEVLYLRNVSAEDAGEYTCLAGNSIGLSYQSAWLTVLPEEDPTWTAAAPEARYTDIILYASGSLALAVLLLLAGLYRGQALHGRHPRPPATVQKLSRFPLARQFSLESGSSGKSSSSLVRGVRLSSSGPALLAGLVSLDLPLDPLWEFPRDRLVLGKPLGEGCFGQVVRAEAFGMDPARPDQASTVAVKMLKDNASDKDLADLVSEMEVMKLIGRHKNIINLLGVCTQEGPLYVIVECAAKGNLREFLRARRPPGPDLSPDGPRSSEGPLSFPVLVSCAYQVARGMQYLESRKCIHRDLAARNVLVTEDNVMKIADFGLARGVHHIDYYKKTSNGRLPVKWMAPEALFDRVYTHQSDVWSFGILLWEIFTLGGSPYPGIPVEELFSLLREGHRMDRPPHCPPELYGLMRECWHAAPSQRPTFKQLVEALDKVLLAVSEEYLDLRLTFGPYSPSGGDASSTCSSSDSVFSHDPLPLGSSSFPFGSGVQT
Heat shock protein beta-1 (Homo sapiens), sequence (P04792 whole entry): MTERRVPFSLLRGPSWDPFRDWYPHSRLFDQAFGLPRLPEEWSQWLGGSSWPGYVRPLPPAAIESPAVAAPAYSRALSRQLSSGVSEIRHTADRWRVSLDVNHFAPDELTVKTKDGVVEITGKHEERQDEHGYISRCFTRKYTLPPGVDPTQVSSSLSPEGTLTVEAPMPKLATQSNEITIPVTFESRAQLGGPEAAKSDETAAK
MAP kinase-activated protein kinase 5, sequence (Q8IW41 whole entry): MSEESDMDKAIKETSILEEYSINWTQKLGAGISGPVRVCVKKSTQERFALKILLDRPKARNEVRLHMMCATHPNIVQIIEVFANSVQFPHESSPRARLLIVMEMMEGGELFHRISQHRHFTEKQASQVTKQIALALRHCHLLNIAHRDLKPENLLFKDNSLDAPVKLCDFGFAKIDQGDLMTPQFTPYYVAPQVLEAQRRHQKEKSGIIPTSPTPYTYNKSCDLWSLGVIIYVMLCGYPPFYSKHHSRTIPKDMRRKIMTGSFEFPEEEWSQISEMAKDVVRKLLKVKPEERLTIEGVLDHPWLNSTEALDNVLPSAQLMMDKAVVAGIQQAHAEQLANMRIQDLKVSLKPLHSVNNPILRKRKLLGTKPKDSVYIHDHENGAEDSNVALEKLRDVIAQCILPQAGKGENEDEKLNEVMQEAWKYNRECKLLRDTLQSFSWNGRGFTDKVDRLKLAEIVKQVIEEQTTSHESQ
Vascular endothelial growth factor receptor 2, sequence (P35968 whole entry): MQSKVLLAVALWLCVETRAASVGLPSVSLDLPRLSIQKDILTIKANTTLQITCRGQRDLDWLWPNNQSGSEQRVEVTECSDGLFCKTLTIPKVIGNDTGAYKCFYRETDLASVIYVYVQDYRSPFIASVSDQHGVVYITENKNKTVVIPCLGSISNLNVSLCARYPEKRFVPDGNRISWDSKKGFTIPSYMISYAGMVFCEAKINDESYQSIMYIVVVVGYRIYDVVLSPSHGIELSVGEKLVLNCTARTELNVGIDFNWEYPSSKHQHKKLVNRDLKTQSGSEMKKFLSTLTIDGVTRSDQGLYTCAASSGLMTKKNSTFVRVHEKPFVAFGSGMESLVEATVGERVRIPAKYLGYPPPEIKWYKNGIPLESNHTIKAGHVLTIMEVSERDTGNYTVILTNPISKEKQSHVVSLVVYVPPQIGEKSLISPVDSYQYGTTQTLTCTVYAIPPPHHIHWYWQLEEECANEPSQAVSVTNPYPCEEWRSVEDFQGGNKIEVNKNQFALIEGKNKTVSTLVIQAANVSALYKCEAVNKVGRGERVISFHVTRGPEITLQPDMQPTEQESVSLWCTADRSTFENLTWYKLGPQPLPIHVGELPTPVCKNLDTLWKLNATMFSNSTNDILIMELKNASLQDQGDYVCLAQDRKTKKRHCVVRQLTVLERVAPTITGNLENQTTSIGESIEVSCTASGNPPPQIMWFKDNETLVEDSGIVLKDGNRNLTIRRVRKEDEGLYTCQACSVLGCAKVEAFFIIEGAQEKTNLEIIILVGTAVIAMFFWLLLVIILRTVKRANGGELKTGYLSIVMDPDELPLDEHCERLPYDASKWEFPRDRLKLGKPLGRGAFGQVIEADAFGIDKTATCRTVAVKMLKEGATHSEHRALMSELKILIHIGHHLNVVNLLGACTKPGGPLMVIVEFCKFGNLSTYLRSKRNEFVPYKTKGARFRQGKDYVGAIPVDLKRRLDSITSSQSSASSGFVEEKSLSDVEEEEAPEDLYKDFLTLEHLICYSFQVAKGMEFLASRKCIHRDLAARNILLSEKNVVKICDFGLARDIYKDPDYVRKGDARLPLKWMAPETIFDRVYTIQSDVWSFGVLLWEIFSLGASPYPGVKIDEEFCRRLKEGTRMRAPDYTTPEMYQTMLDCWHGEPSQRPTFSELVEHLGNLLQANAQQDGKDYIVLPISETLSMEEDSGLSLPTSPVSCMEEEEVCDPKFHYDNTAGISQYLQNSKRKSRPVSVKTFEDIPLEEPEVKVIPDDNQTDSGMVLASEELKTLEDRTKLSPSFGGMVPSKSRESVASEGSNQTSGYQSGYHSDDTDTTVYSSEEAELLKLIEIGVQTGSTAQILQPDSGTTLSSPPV
MAP kinase-activated protein kinase 2, sequence (P49137 whole entry): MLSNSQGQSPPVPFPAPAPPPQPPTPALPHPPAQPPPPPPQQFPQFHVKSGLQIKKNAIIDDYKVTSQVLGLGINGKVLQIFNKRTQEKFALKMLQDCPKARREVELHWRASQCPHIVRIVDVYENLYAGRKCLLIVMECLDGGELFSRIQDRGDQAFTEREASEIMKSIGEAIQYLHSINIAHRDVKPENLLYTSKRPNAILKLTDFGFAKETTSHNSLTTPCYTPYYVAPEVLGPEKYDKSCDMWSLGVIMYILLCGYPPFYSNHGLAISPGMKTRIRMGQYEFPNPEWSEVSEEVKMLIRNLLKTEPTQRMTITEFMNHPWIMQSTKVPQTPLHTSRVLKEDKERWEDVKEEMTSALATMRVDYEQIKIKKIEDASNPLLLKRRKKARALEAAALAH
Mitogen-activated protein kinase 1, sequence (P28482 whole entry): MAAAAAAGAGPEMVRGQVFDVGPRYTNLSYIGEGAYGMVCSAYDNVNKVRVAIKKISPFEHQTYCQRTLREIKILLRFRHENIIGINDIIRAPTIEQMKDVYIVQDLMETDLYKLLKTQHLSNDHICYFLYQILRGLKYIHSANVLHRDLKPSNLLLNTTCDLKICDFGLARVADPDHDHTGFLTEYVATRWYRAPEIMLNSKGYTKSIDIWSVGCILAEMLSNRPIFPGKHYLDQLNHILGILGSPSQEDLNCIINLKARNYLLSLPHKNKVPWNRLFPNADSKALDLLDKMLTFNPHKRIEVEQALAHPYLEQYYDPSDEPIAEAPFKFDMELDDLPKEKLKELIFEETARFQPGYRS
Aurora kinase A, sequence (O14965 whole entry): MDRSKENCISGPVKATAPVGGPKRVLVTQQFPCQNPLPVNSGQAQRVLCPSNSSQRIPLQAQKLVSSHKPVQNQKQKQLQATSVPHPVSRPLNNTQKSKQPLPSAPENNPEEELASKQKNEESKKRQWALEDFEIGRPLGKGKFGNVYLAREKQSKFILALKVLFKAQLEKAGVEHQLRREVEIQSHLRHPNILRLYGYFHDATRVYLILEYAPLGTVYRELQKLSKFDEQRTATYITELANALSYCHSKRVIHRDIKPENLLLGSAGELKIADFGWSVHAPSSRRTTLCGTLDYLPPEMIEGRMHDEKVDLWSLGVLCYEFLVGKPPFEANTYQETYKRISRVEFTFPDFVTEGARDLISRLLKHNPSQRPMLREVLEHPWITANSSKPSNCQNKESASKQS

In the data set with PBMC, `O=c1[nH]c(Cc2ccccc2)nc2[nH]c(-c3ccnc(/C=C/c4ccccc4)c3)cc12` gave a pIC50 of less than 5.00.
Regarding `O=c1[nH]cnc2[nH]c(-c3ccnc(/C=C/c4ccc(F)cc4)c3)cc12`, the pIC50 in the data set with PBMC was 6.46. The compound also yielded a solubility (thermodynamic) in [1] of 3 µg/mL (≈ 9.03 µM).
`COc1ccc(-c2cc(-c3cc4c(=O)[nH]cnc4[nH]3)ccn2)cc1` showed a pIC50 with PBMC of less than 5.00.
In the data set on PBMC, `O=C(c1ccc(/C=C/c2cc(-c3cc4c(=O)[nH]cnc4[nH]3)ccn2)cc1)N1CCOCC1` had a pIC50 of 6.82. The compound also showed a solubility (thermodynamic) in data set [1] of 9 µg/mL (≈ 21.1 µM).
`O=C(Nc1cc(-c2cc3c(=O)[nH]cnc3[nH]2)ccn1)c1ccc(C2CCCC2)cc1` gave a negative-log IC50 (pIC50) in the data set with PBMC of 5.00.
As for `O=c1[nH]cnc2[nH]c(-c3ccnc(/C=C/c4ccc(CN5CCOCC5)cc4)c3)cc12`, the pIC50 in data set [2] was 5.17; in data set [3], 7.29; in [4], 5.40; in data set [5], 7.07; in [6], 5.28; in data set [7], less than 5.00. Further, the pIC50 is 5.89 in [8]; 7.62 in data set [10]; 6.96 with PBMC; 5.77 against Ephrin type-B receptor 4; less than 5.00 in data set [11]; 6.52 in [12]. Besides, the pIC50 in data set [13] is 7.00; on Insulin receptor it was less than 5.00; in data set [14], less than 5.00; in data set [15] it was 5.96; in data set [16] it was 6.02; in [17] it was less than 5.00. The pIC50 in data set [18] is less than 5.00; in [19] it was less than 5.00; in data set [20] it was 5.21; at Ephrin type-A receptor 4 it was less than 5.00; at Aurora kinase A it was 7.03; in data set [21], less than 5.00. The same compound showed a negative-log IC50 (pIC50) in data set [22] of 6.51. The compound also yielded an IC50 against MAP kinase p38 greater than 10 µM. Also, in [9], the Activity entry was “Dose-dependent effect”. Besides, in [1], the thermodynamic solubility came to 41 µg/mL (≈ 99.2 µM).
Consider `CN(C)CCOc1ccc(/C=C/c2cc(-c3cc4c(=O)[nH]cnc4[nH]3)ccn2)cc1`, for which the pIC50 in data set [2] is less than 5.00; in data set [3], 7.09; in data set [4], 6.02; in data set [5], 6.85; in data set [6] it was 5.21; in data set [7], 5.19. Moreover, the pIC50 in [23] is 5.48; in data set [8], 5.44; in data set [10], 7.55; in the data set with PBMC, 7.40; on Ephrin type-B receptor 4 it was 5.85; in [11] it was 5.39. For the same compound, the pIC50 is 6.28 in data set [12]; 6.72 in [13]; 5.11 against Insulin receptor; less than 5.00 in data set [14]; 5.59 in data set [15]; 6.62 in [16]. Besides, the negative logarithm of the IC50 (pIC50) was 5.02 in data set [17]; 5.17 in [18]; less than 5.00 in data set [19]; 5.25 against Ephrin type-A receptor 4; 6.55 at Aurora kinase A; 5.09 in [21]. The pIC50 in data set [22] is 6.00. At MAP kinase p38, this compound returned an IC50 greater than 10 µM. Besides, the Activity entry in data set [9] is “Dose-dependent effect”. This compound also displayed a thermodynamic solubility in [1] of 410 µg/mL (≈ 1020 µM).
`Nc1nc2[nH]c(-c3ccnc(/C=C/c4ccccc4)c3)cc2c(=O)[nH]1` showed a pIC50 with PBMC of 5.82.
On to `O=c1[nH]cnc2[nH]c(-c3ccnc(/C=C/c4ccccc4)c3)cc12`, for which the pIC50 in the data set with PBMC is 5.64.
For `Cc1nc2[nH]c(-c3ccnc(/C=C/c4ccccc4)c3)cc2c(=O)[nH]1`, the pIC50 with PBMC is 5.96.
With `CCN(CC)Cc1ccc(/C=C/c2cc(-c3cc4c(=O)[nH]cnc4[nH]3)ccn2)cc1`, the pIC50 in the data set with PBMC was 6.42.

The values above are taken from ChEMBL document CHEMBL1152141, “Pyrrolo-pyrimidones: a novel class of MK2 inhibitors with potent cellular activity” (Bioorg Med Chem Lett, 2008).
